ChEMBL document CHEMBL1201862, “PubChem BioAssay data set” (2004)
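Method: 48-hour compound exposure of cells in 96-well plates, five concentrations, linear interpolation of endpoints. The concentration for 50% growth inhibition is given as GI50.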 Active and inactive are the calls of the source. No stated cut-off is given here; in the data, active = GI50 up to about 1.1 µM and inactive = higher.

Experiments:
Assay in all cases: NCI anticancer screen, dose series, 48 h
[1] = tested on: DMS-273
[2] = tested on: M19-MEL
[3] = tested on: CCRF-CEM
[4] = tested on: SK-OV-3
[5] = tested on: NCI-H226
[6] = tested on: CAKI-1
[7] = tested on: NCI-H23
[8] = tested on: 786-0
[9] = tested on: SN12C
[10] = tested on: SK-MEL-28
[11] = tested on: KM-20L2
[12] = tested on: UACC-62
[13] = tested on: IGROV-1
[14] = tested on: A498
[15] = tested on: UACC-257
[16] = tested on: LXFL 529
[17] = tested on: LOX IMVI
[18] = tested on: EKVX
[19] = tested on: HOP-62
[20] = tested on: TK-10
[21] = tested on: DMS-114
[22] = tested on: SF-295
[23] = tested on: SF-268
[24] = tested on: RPMI-8226
[25] = tested on: SNB-19
[26] = tested on: HOP-18
[27] = tested on: U-251
[28] = tested on: RXF 393
[29] = tested on: SK-MEL-5
[30] = tested on: M14
[31] = tested on: SNB-75
[32] = tested on: ACHN
[33] = tested on: DLD-1
[34] = tested on: Malme-3M
[35] = tested on: HCT-116
[36] = tested on: MOLT-4
[37] = tested on: SNB-78
[38] = tested on: HT-29
[39] = tested on: OVCAR-4
[40] = tested on: OVCAR-8
[41] = tested on: HL-60
[42] = tested on: SF-539
[43] = tested on: SK-MEL-2
[44] = tested on: SW-620
[45] = tested on: OVCAR-5
[46] = tested on: XF498
[47] = tested on: KM12
[48] = tested on: HCC 2998
[49] = tested on: K562
[50] = tested on: NCI-H522
[51] = tested on: COLO 205
[52] = tested on: UO-31
[53] = tested on: A549
[54] = tested on: NCI-H460
[55] = tested on: HCT-15
[56] = tested on: HOP-92
[57] = tested on: OVCAR-3
[58] = tested on: SR

## FC(F)(F)P1C2C=CC(CC2)C1(F)F (stereo unspecified)
[1]
  GI50: > 100 µM (inactive)
[2]
  GI50: > 100 µM (inactive)
[3]
  GI50: > 100 µM (inactive)
[4]
  GI50: > 100 µM (inactive)
[5]
  GI50: > 100 µM (inactive)
[6]
  GI50: > 100 µM (inactive)
[7]
  GI50: > 100 µM (inactive)
[8]
  GI50: > 100 µM (inactive)
[9]
  GI50: > 100 µM (inactive)
[10]
  GI50: > 100 µM (inactive)
[11]
  GI50: > 100 µM (inactive)
[12]
  GI50: > 100 µM (inactive)
[13]
  GI50: > 100 µM (inactive)
[14]
  GI50: > 100 µM (inactive)
[15]
  GI50: > 100 µM (inactive)
[16]
  GI50: > 100 µM (inactive)
[17]
  GI50: > 100 µM (inactive)
[18]
  GI50: > 100 µM (inactive)
[19]
  GI50: > 100 µM (inactive)
[20]
  GI50: > 100 µM (inactive)
[21]
  GI50: > 100 µM (inactive)
[22]
  GI50: > 100 µM (inactive)
[23]
  GI50: > 100 µM (inactive)
[24]
  GI50: > 100 µM (inactive)
[25]
  GI50: > 100 µM (inactive)
[26]
  GI50: > 100 µM (inactive)
[27]
  GI50: > 100 µM (inactive)
[28]
  GI50: > 100 µM (inactive)
[29]
  GI50: > 100 µM (inactive)
[30]
  GI50: > 100 µM (inactive)
[31]
  GI50: > 100 µM (inactive)
[32]
  GI50: > 100 µM (inactive)
[33]
  GI50: > 100 µM (inactive)
[34]
  GI50: > 100 µM (inactive)
[35]
  GI50: > 100 µM (inactive)
[36]
  GI50: > 100 µM (inactive)
[37]
  GI50: > 100 µM (inactive)
[38]
  GI50: > 100 µM (inactive)
[39]
  GI50: > 100 µM (inactive)
[40]
  GI50: > 100 µM (inactive)
[41]
  GI50: > 100 µM (inactive)
[42]
  GI50: > 100 µM (inactive)
[43]
  GI50: > 100 µM (inactive)
[44]
  GI50: 63.2 µM (inactive)
[45]
  GI50: > 100 µM (inactive)
[46]
  GI50: > 100 µM (inactive)
[47]
  GI50: > 100 µM (inactive)
[48]
  GI50: > 100 µM (inactive)
[49]
  GI50: > 100 µM (inactive)
[50]
  GI50: > 100 µM (inactive)
[51]
  GI50: > 100 µM (inactive)
[52]
  GI50: > 100 µM (inactive)
[53]
  GI50: > 100 µM (inactive)
[54]
  GI50: > 100 µM (inactive)
[55]
  GI50: > 100 µM

## CC(=O)OCCc1cccnc1/C=N/O
[1]
  GI50: > 100 µM (inactive)
[56]
  GI50: > 100 µM (inactive)
[2]
  GI50: > 100 µM (inactive)
[3]
  GI50: > 100 µM (inactive)
[4]
  GI50: > 100 µM (inactive)
[5]
  GI50: 77.6 µM (inactive)
[6]
  GI50: > 100 µM (inactive)
[7]
  GI50: > 100 µM (inactive)
[8]
  GI50: > 100 µM (inactive)
[9]
  GI50: > 100 µM (inactive)
[10]
  GI50: > 100 µM (inactive)
[11]
  GI50: > 100 µM (inactive)
[12]
  GI50: > 100 µM (inactive)
[13]
  GI50: > 100 µM (inactive)
[15]
  GI50: > 100 µM (inactive)
[16]
  GI50: > 100 µM (inactive)
[17]
  GI50: > 100 µM (inactive)
[18]
  GI50: > 100 µM (inactive)
[19]
  GI50: > 100 µM (inactive)
[20]
  GI50: > 100 µM (inactive)
[21]
  GI50: > 100 µM (inactive)
[22]
  GI50: > 100 µM (inactive)
[23]
  GI50: > 100 µM (inactive)
[57]
  GI50: > 100 µM (inactive)
[25]
  GI50: > 100 µM (inactive)
[26]
  GI50: > 100 µM (inactive)
[27]
  GI50: > 100 µM (inactive)
[58]
  GI50: > 100 µM (inactive)
[28]
  GI50: > 100 µM (inactive)
[29]
  GI50: > 100 µM (inactive)
[30]
  GI50: > 100 µM (inactive)
[31]
  GI50: > 100 µM (inactive)
[32]
  GI50: > 100 µM (inactive)
[33]
  GI50: > 100 µM (inactive)
[34]
  GI50: > 100 µM (inactive)
[35]
  GI50: > 100 µM (inactive)
[36]
  GI50: > 100 µM (inactive)
[37]
  GI50: > 100 µM (inactive)
[38]
  GI50: > 100 µM (inactive)
[39]
  GI50: > 100 µM (inactive)
[40]
  GI50: > 100 µM (inactive)
[41]
  GI50: > 100 µM (inactive)
[42]
  GI50: > 100 µM (inactive)
[43]
  GI50: > 100 µM (inactive)
[44]
  GI50: > 100 µM (inactive)
[45]
  GI50: > 100 µM (inactive)
[46]
  GI50: > 100 µM (inactive)
[47]
  GI50: > 100 µM (inactive)
[48]
  GI50: > 100 µM (inactive)
[49]
  GI50: > 100 µM (inactive)
[50]
  GI50: > 100 µM (inactive)
[51]
  GI50: > 100 µM (inactive)
[52]
  GI50: > 100 µM (inactive)
[53]
  GI50: > 100 µM (inactive)
[54]
  GI50: > 100 µM (inactive)
[55]
  GI50: > 100 µM
